From patent publication US8404694B2, “Aurora kinase modulators and method of use” (Amgen Inc., priority 2008, dated 2013)

Assays:
[1] = tested on: HeLa cells; test: HeLa cell 24 hr ploidy assay; assay type: cell-based; details: Homo sapiens, 24 hrs treatment, DNA content (ploidy), read-out: 24 h_4N Ploidy EC50—IP (Avg)
Description: HeLa Cell 24 hr Ploidy Assay Protocol
The purpose of this assay is to evaluate the ability of selected individual compounds to induce Deoxyribonucleic acid (DNA) content (ploidy) in cells thought failed cell division. Cell cycle analysis is a rapid and efficient way to evaluate the status of DNA content (ploidy) of a given cell. HeLa cells (1×10^4 HeLa cells/well) in 100 ul of media (MEM+10% FBS) were plated in 96-well plates (Packard View) and cultured for 24 hrs at 37° C. maintained in a 5% CO2 atmosphere. The following day, cells were treated for 24 hrs with inhibitor compounds (10 pt. Dose ranging from 0.0024-1.25 umol/L). The compounds were serially diluted in DMSO (0.25% final concentration). The cells were fixed (3.7% Formaldehyde and 1% glutaraldehyde) and permeabilized (1×PBS with 1% BSA and 0.2% Triton X-100) in preparation for nuclear staining. The well plates were stained for 45 minutes at RT in the dark using Hoechest 33342 nuclear stain at 0.5 ug·ml (Stock of 10 mg/ml, Invitrogen, CA, Cat # H3570). The nuclear stain was removed by aspiration and the cells were washed with wash buffer. A Cellomics Array Scan Vti plate reader was used to acquire the DNA ploidy data of the cells using Cell Cycle bioapplication. Numbers for each of “valid cell count/well”, “% of 4N cells” and “% of >4Ncells” were calculated with the assistance of an Activity Base 5.1ca software and dose curves were generated using an XLFit software. With XLFit, final EC50 IP and EC50 transit values, as well as the Max and Min, were calculated for each curve. Many of the Examples described herein were tested, and fund to be active compounds. Table I includes related biological data in the 24 h cell-ploidy content assay, which may be interpreted using the activity gauge below: […]

[2] = target: T1, AuroraB (Homo sapiens, UniProt Q96GD4); test: AuroraB Homogeneous Time Resolved Fluorescent (HTRF) kinase assay; assay type: biochemical; details: ATP 23 μM, biotinylated Histone H3 peptide, read-out: AurB_IC50—IP (Avg)
T1 construct: 20 μL of AuroraB FL His; His
T1 sequence (Q96GD4 whole entry): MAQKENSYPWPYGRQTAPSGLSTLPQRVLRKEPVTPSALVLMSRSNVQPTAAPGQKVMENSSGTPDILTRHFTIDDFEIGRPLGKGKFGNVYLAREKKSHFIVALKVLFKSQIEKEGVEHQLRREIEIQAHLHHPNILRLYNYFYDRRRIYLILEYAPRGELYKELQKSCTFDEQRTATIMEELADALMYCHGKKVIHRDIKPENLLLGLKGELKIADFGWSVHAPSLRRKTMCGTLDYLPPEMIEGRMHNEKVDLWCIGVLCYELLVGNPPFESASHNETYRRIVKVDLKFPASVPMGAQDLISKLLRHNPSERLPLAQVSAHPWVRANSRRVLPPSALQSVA
Description: AuroraB-Homogeneous Time Resolved Fluorescent (HTRF) Kinase Assay:
The AuroraB HTRF assay begins with AuroraB in the presence of ATP phosphorylating the biotinylated peptide Histone H3. The reaction incubates for about 90 min. the reaction is quenched by addition of detection reagents, which stop the reaction by diluting out the enzyme and chelating the metals due to the presence of EDTA. After addition, the assay is incubated for about 60 min to allow detection reagents to equilibrate.
The AuroraB HTRF assay comprises 1 μL of compound in 100% DMSO, 20 μL of ATP and biotinylated Histone H3, and 20 μL of AuroraB FL His for a final volume of 41 μL. The final concentration of Histone H3 is 0.1 μM. The final concentration of ATP is 23 μM (Km(app)=23 μM+/−2.6) and the final concentration of AuroraB is 400 pM. Buffer conditions are as follows: 50 mM HEPES pH 7.5, 5 mM NaCl, 0.5 mM MgCl, 0.5 mM MnCl, 2 mM DTT, 0.05% BSA.
(§1) The assay is quenched and stopped with 160 μL of detection reagent. Detection reagents are as follows: Buffer made of 50 mM Tris, pH 7.5, 100 mM NaCl, 3 mM EDTA, 0.05% BSA, 0.1% Tween20. Added to this buffer prior to reading is Steptavidin allophycocyanin (SA-APC) at a final conc in the assay of 0.001 mg/mL, and europilated anti-phosphoHistoneH3 Ab (Eu-anti-His H3) at a final conc of 0.064 nM.
(§2) The assay plate is read in either a Discovery or a RubyStar. The eu-anti-His H3 is excited at 320 nm and emits at 615 nm to excite the SA-APC which in turn emits at 655 nm. The ratio of SA-APC at 655 nm (excited due to close proximity to the Eu-anti-His H3 because of phosphorylation of the peptide) to free Eu-anti-His H3 at 615 nm will give substrate phosphorylation.
(§3) Many of the Examples described herein were tested, and found to be active compounds. Table I includes related biological data, which may be interpreted using the activity gauge below: […]

[3] = target: T2, AuroraA-TPX2 (Homo sapiens, UniProt O14965); test: AuroraA-TPX2 Homogeneous Time Resolved Fluorescent (HTRF) kinase assay; assay type: biochemical; details: ATP about 1 μM, biotinylated PLK peptide, read-out: AurA_IC50—IP (Avg)
T2 construct: 20 μL of AuroraA-TPX2 KD GST; GST
T2 sequence (O14965 133-383 limits assumed): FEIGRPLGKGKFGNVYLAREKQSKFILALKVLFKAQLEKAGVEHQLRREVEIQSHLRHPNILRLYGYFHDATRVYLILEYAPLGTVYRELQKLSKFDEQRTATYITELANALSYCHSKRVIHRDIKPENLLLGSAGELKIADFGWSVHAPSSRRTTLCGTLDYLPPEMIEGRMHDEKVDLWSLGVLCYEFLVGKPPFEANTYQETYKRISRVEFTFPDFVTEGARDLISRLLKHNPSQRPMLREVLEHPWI
T2 sequence (Q9ULW0 1-747 partner): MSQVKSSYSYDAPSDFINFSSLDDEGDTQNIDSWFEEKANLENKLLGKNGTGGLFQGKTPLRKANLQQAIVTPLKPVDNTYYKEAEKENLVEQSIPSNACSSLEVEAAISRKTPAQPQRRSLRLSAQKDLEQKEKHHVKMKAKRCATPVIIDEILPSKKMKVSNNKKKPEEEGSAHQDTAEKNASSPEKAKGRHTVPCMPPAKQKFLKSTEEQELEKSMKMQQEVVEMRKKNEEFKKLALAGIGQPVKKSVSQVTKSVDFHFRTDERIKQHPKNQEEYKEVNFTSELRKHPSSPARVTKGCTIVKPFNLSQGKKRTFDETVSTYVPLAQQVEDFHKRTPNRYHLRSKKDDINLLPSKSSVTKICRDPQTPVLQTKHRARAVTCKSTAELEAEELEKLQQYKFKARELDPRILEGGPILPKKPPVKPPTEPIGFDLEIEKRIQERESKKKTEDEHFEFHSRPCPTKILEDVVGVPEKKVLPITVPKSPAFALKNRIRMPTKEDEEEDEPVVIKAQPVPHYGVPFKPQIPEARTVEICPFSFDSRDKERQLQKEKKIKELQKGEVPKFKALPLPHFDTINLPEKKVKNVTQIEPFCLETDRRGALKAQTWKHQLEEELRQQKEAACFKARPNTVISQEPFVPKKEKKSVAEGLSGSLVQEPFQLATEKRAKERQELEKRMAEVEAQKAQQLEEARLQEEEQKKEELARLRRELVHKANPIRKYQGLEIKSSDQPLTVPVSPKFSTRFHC
Description: AuroraA-TPX2-Homogeneous Time Resolved Fluorescent (HTRF) Kinase Assay:
The Aurora-A HTRF assay begins with Aurora-A in the presence of ATP phosphorylating the biotinylated peptide PLK. The reaction incubates for about 120 min. Detection reagents are added to quench the reaction. These agents stop the reaction by diluting out the enzyme and chelating the metals due to the presence of EDTA. After addition, the assay is incubated overnight to allow the detection reagents to equilibrate.
The AuroraA HTRF assay comprises 1 μL of compound in 100% DMSO, 20 μL of ATP and biotinylated PLK, and 20 μL of AuroraA-TPX2 KD GST for a final volume of about 41 μL. The final concentration of PLK is about 1 μM. The final concentration of ATP is about 1 μM (Km(app)=1 μM+/−0.1) and the final concentration of AuroraA is about 5 nM. Buffer conditions are as follows: 60 mM HEPES pH 7.5, 25 mM NaCl, 10 mM MgCl, 2 mM DTT, 0.05% BSA.
as §1, with “0.0005” for “0.001”, “anti-phosphoPLK” for “anti-phosphoHistoneH3”, “(Eu-anti-PLK)” for “(Eu-anti-His H3)”, “0.02” for “0.064”
as §2, with “eu-anti-PLK” for “eu-anti-His H3”, “Eu-anti-PLK” for “Eu-anti-His H3”
as §3

| Structure (SMILES) | EC50 [1] [nM] | IC50 [2] [nM] | IC50 [3] [nM] |
| --- | --- | --- | --- |
| Clc1ccc(-c2nnc(Nc3ccc(Oc4ccnn5cccc45)cc3)c3ccccc23)cc1 [Example 2, 4-(4-Chlorophenyl)-N-(4-(pyrrolo[1,2-b]pyridazin-4-yloxy)phenyl)-1-phthalazinamine] | 100 to 500 | < 100 | 100 to 500 |
| Clc1ccc(-c2nnc(Nc3ccc(Oc4ncnn5cccc45)cc3)c3ccccc23)cc1 [Example 3, 4-(4-Chlorophenyl)-N-(4-(pyrrolo[2,1-f][1,2,4]triazin-4-yloxy)phenyl)-1-phthalazinamine] | 500 to 2500 | < 100 | 500 to 2500 |
| Oc1cc2nccc(Sc3ccc(Nc4nnc(-c5ccc(Cl)cc5)c5ccccc45)cc3)n2n1 [Example 5, 7-(4-(4-(4-Chlorophenyl)phthalazin-1-ylamino)phenylthio)pyrazolo[1,5-a]pyrimidin-2-ol] | 100 to 500 | < 100 | < 100 |
| Clc1ccc(-c2nnc(Nc3ccc(Sc4ncnn5ccc(Cl)c45)cc3)c3ccccc23)cc1 [Example 7, 4-(4-Chlorophenyl)-N-(4-(5-chloropyrrolo[1,2-f][1,2,4]triazin-4-ylthio)phenyl)phthalazin-1-amine] | 100 to 500 | < 100 | > 2500 |
| Cc1csc(-c2nnc(Nc3ccc(Oc4ncnn5cccc45)cc3)c3ccccc23)c1 [Example 24, 4-(4-methyl-2-thienyl)-N-(4-(pyrrolo[2,1-f][1,2,4]triazin-4-yloxy)phenyl)-1-phthalazinamine] | 100 to 500 | < 100 | 100 to 500 |
| Clc1ccc(-c2nnc(Nc3ccc(Sc4ncnn5cccc45)cc3)c3ccccc23)cc1 [Example 25, 4-(4-chlorophenyl)-N-(4-(pyrrolo[2,1-f][1,2,4]triazin-4-ylthio)phenyl)-1-phthalazinamine] | 100 to 500 | < 100 | > 2500 |
| Cc1csc(-c2nnc(Nc3ccc(Sc4ncnn5cccc45)cc3)c3ccccc23)c1 [Example 26, 4-(4-methyl-2-thienyl)-N-(4-(pyrrolo[2,1-f][1,2,4]triazin-4-ylthio)phenyl)-1-phthalazinamine] | 100 to 500 | < 100 | 500 to 2500 |

Now from value to compound:

| EC50 [1] [nM] | IC50 [2] [nM] | IC50 [3] [nM] | Structure (SMILES) |
| --- | --- | --- | --- |
| < 100 | < 100 | > 2500 | Clc1ccc(-c2nnc(Nc3ccc(Sc4ccnc5cc(C6CC6)nn45)cc3)c3ccccc23)cc1 [Example 1, 4-(4-Chlorophenyl)-N-(4-(2-cyclopropylpyrazolo[1,5-a]pyrimidin-7-ylthio)phenyl)phthalazin-1-amine] |
| < 100 | < 100 | < 100 | COCCOc1cc2nccc(Sc3ccc(Nc4nnc(-c5ccc(Cl)cc5)c5ccccc45)cc3)n2n1 [Example 6, 4-(4-Chlorophenyl)-N-(4-(2-(2-methoxyethoxy)pyrazolo[1,5-a]pyrimidin-7-ylthio)phenyl)phthalazin-1-amine] |
| < 100 | < 100 | < 100 | Clc1ccc(-c2nnc(Nc3ccc(Sc4ccnc5ccnn45)cc3)c3ccccc23)nc1 [Example 20, 4-(5-chloro-2-pyridinyl)-N-(4-(pyrazolo[1,5-a]pyrimidin-7-ylthio)phenyl)-1-phthalazinamine] |
| < 100 | < 100 | < 100 | Cc1ccc(-c2nnc(Nc3ccc(Sc4ccnc5ccnn45)cc3)c3ccccc23)nc1 [Example 21, 4-(5-methyl-2-pyridinyl)-N-(4-(pyrazolo[1,5-a]pyrimidin-7-ylthio)phenyl)-1-phthalazinamine] |
| < 100 | < 100 | 100 to 500 | c1ccc(-c2nnc(Nc3ccc(Sc4ccnc5cc(C6CC6)nn45)cc3)c3ccccc23)cc1 [Example 22, N-(4-((2-cyclopropylpyrazolo[1,5-a]pyrimidin-7-yl)thio)phenyl)-4-phenyl-1-phthalazinamine] |
| < 100 | 100 to 500 | < 100 | Cc1csc(-c2nnc(Nc3ccc(Sc4ccnc5cc(C6CC6)nn45)cc3)c3ccccc23)c1 [Example 23, N-(4-((2-cyclopropylpyrazolo[1,5-a]pyrimidin-7-yl)thio)phenyl)-4-(4-methyl-2-thienyl)-1-phthalazinamine] |
